Test results from paper PMC11784839, “Monoaminergic neurotransmitters are bimodal effectors of tau aggregation” (Science Advances, 2025).

Target: tau (Homo sapiens, UniProt P10636)
Assay: MCE Phenols Library screening, tau biosensor cell seeding assay (AvZ)
Assay type: cell-based
Conditions: for Z repl 1 / Z Repl 2: Z score; for Z repl 1 / raw data 1: replicate 1; for Z Repl 2 / raw data 2: replicate 2; for AvZ (average z score of seeding, SDs from the mean level of seeding): 10 μM phenol in cell cultures, AD brain homogenate preincubated 16 hours, two biological replicates, positive = catalyzes seeding, negative = inhibits
[1] = average Z score of the two replicates, MCE Phenols Library screen
[2] = average puncta of the two replicates
[3] = average Z score of the two replicates, tau seeding
[4] = average Z score of the two replicates, tau biosensor seeding, MCE Phenols Library screen
[5] = average Z score of two replicates, Phenols Library screen

tau, sequence (P10636 623-695 limits assumed): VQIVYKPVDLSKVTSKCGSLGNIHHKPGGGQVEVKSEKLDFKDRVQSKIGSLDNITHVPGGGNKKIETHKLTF

Compound	Z repl 1	Z Repl 2	av Z [1]	av puncta (average of raw data 1 and 2)	raw data 1 (puncta)	raw data 2 (puncta)	av puncta [2]	raw data 1 (raw puncta)	raw data 2 (raw puncta)	av Z [3]	av Z [4]	av Z [5]	AvZ (average z score of seeding, SDs from the mean level of seeding)
Cc1cc(O)c2c(=O)c3c(O)cc(O)c4c5c(O)cc(O)c6c(=O)c7c(O)cc(C)c8c1c2c(c34)c(c78)c65 [Hypericin]	-1.344	-0.424	-0.884	9227.43	10216.3	8238.56							
O=c1c(O[C@@H]2O[C@H](CO)[C@H](O)[C@H](O)[C@H]2O)c(-c2ccc(O)c(O)c2)oc2cc(O)cc(O)c12 [Hyperoside]	-0.253	-0.241	-0.247				16752.5	23311.4	10193.6				
COc1c2c3c4c(c(OC)c(=O)c5c(O)cc(OC)c(c6c(OC)cc(O)c(c1=O)c63)c54)[C@@H](C(C)=O)[C@@](C)(O)C2 [Hypocrellin A]	-1.761	-1.119	-1.44	3011.52	5209.06	813.974							
COc1ccc(-c2oc3c(CC=C(C)C)c(O[C@@H]4O[C@H](CO)[C@@H](O)[C@H](O)[C@H]4O)cc(O)c3c(=O)c2O[C@@H]2O[C@@H](C)[C@H](O)[C@@H](O)[C@H]2O)cc1 [Icariin]	0.381	0.569		24883.3	30921.9	18844.8				0.475			
COc1ccc(-c2oc3c(CC=C(C)C)c(O)cc(O)c3c(=O)c2O)cc1 [Icaritin]	0.42	0.629		25439.4	31392.8	19486				0.525			
O=C(c1ccc(O)cc1)c1c(O)cc(O)c([C@@H]2O[C@H](CO)[C@@H](O)[C@H](O)[C@H]2O)c1O [Iriflophenone 3-C-glucoside]	0.626	-0.232		22078.3	33866.6	10290				0.197			
COc1ccc(-c2coc3cc(O)c(OC)c(O)c3c2=O)cc1 [Irisolidone]	0.554	1.188		29224.4	32994.7	25454.1					0.871		
COc1ccc(-c2coc3cc(O[C@@H]4O[C@H](CO)[C@@H](O)[C@H](O)[C@H]4O)c(OC)c(O)c3c2=O)cc1O [Iristectorin A]	0.106	0.25		21528.7	27620	15437.3				0.178			
COc1cc(-c2coc3cc(O[C@@H]4O[C@H](CO)[C@@H](O)[C@H](O)[C@H]4O)c(OC)c(O)c3c2=O)ccc1O [Iristectorin B]	-0.293	-0.887	-0.59		22827.1	3295.67	13061.4						
O=C(/C=C/c1ccc(O)c(O)c1)O[C@@H]1C[C@](O)(C(=O)O)C[C@@H](OC(=O)/C=C/c2ccc(O)c(O)c2)[C@H]1O [Isochlorogenic acid A]	-0.182	0.275		19930.3	24161.4	15699.2						0.046	
COc1ccc2c(c1O)-c1c(OC)c(OC)cc3c1[C@H](C2)N(C)CC3 [Isocorydine]	-0.45	-0.651	-0.55		20943.6	5817.19	13380.4						
C/C=C/c1ccc(OC(C)=O)c(OC)c1 [Isoeugenol acetate]	-0.788	0.239					16103.3	16893.4	15313.2				-0.275
COc1ccc2c(=O)c(-c3ccc(O)cc3)coc2c1 [Isoformononetin]	0.35	-0.155		20831	30549.1	11112.8						0.098	
COc1cc2ccc(=O)oc2c(OC)c1O [Isofraxidin]	0.211	0.742		24789.8	28887.4	20692.2				0.477			
COc1ccc(C[C@@H]2c3cc(Oc4cc(C[C@@H]5c6cc(O)c(OC)cc6CCN5C)ccc4O)c(OC)cc3CCN2C)cc1 [Isoliensinine]	0.107	0.423		22459.5	27639.6	17279.4				0.265			
O=C(/C=C/c1ccc(O)cc1)c1ccc(O)cc1O [Isoliquiritigenin]	0.483	0.177		23402.5	32143.5	14661.5				0.33			
O=c1c2cc(O)c(O)cc2oc2c([C@@H]3O[C@H](CO)[C@@H](O)[C@H](O)[C@H]3O)c(O)cc(O)c12 [Isomangiferin]	0.307	0.537		24267.1	30032.6	18501.6				0.422			
O=c1cc(-c2ccc(O)c(O)c2)oc2cc(O)c([C@@H]3O[C@H](CO)[C@@H](O)[C@H](O)[C@H]3O)c(O)c12 [Isoorientin]	0.708	0.042		24030.3	34846.9	13213.7				0.375			
COc1cc(/C=C/C(=O)OC(C)C)ccc1O [Isopropyl ferulate]	0.168	-0.833					16119	28366.5	3871.42				-0.332
O=c1c(O[C@@H]2O[C@H](CO)[C@@H](O)[C@H](O)[C@H]2O)c(-c2ccc(O)c(O)c2)oc2cc(O)cc(O)c12 [Isoquercetin]	0.174	-0.844	-0.335				16096.8	28442.1	3751.47				
COc1cc(-c2oc3cc(O)cc(O)c3c(=O)c2O)ccc1O [Isorhamnetin]	0.124	-0.648	-0.262				16840.7	27835.2	5846.21				
COc1cc(/C=C/c2cc(O)cc(O)c2)ccc1O [Isorhapontigenin]	1.299	0.571		30407	41947.4	18866.6					0.935		
O=c1cc(-c2ccc(O)cc2)oc2c([C@@H]3O[C@H](CO)[C@@H](O)[C@H](O)[C@H]3O)c(O)c([C@@H]3OC[C@H](O)[C@H](O)[C@H]3O)c(O)c12 [Isoschaftoside]	-0.121	-0.131		18128.6	24892.1	11365.2						-0.126	
COc1ccc(C(=O)O)cc1O [Isovanillic acid]	0.248	-0.549		18113.3	29328.9	6897.73							-0.151
COc1ccc(C=O)cc1O [Isovanillin]	-0.326	-0.711			22438.6	5167.88	13803.3						-0.519
